The test has as its system CAR-expressing T cells. The test is described as follows: Assessment of CAR expression and activation by flow cytometry. The class given is cell-based. As to conditions: FITC coated beads or plate bound FITC; FIGS. 2A-2F. As for the experimental part: Cells were transferred to individual wells of a 96-well V-bottom plate, the plate was spun at 400×g for 5 min, cells were washed with 200 μL PBS and spun again at 400×g for 5 min. Cells were incubated for 10 min at room temperature in 50 μL/well Zombie NIR Fixable Viability Dye (diluted 1:3000 in PBS). Cells were then washed with […] buffer (1×PBS+2% FBS) and the plate was spun at 400×g for 5 min. Next, 50 μL/well of surface stain in FACS buffer were added to the cells and incubated for 45 min at 4° C.
Cells were washed with 150 μL FACS buffer and the plate was spun at 400×g for 5 min. Cells were then fixed with 100 μL/well of BD Cytofix/Cytoperm buffer for 20 min at 4° C. Cells were then washed with 100 μL BD Perm/Wash diluted 10-fold in water and the plate was spun at 400×g for 5 min. Cells were washed again with 200 μL BD Perm/Wash diluted 10-fold in water and the plate was spun again at 400×g for 5 min. 50 μL/well of intracellular stain in 1×BD Perm/Wash was added to the cells and incubated for 30 min at 4° C. Cells were washed with 150 μL, FACS buffer, the plate was spun at 400×g for 5 min and the cells were resuspended in 200 μL FACS buffer for analysis using a Beckman Coulter CytoFLEX S cytometer. As depicted in FIGS. 2A-2F, CAR-expressing T cells expand in the presence of the antigen FITC and this expansion is enhanced with rapamycin. […]

Consider one substance from patent US20240122978A1, “RETROVIRAL VECTOR FOR UNIVERAL RECEPTOR THERAPY” (Umoja BioPharma, Inc., priority 2019, published 2024).

“Also recorded” adds a separate entry of the source.

fluorescein isothiocyanate [FITC]: the “expansion/enrichment of CAR-expressing T cells in the presence of the antigen FITC” value is “enriched; also recorded: enhanced expansion and activation; also recorded: expand”.
